How the values were obtained:
IKZF2 = IKZF2 (Homo sapiens (Human), UniProt Q96SW2+Q9UKS7); assay: In vitro IKZF2 HiBit Assay (HEK293T Flp-in-HiBiT cells); assay type: cell-based; conditions: HEK293T Flp-in-HiBiT cells, 6 hrs incubation; for DC50: read-out: IKZF2 HiBit DC50; for Dmax: HEK-293T, read-out: IKZF2 HiBit Dmax (%)
Outline: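 Remaining tagged Helios was read as lytic HiBiT/LgBiT luminescence normalized to DMSO, yielding binned DC50 and Dmax values. Treatment ran 6 h, with compounds at 11 three-fold doses diluted from 1 mM and 0.1% final DMSO. The cells were HEK293T Flp-in with CRISPR knock-in of HiBiT at the IKZF2 N-terminus.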

IKZF1 = IKZF1 (Homo sapiens (Human), UniProt Q13422+Q96SW2); assay: In vitro IKZF1 HiBit Assay (HEK293T Flp-in-HiBiT-IKZF1 stable cell line); assay type: cell-based; conditions: HEK293T Flp-in-HiBiT-IKZF1 stable cell line, 6 hrs incubation; for DC50: read-out: IKZF1 HiBit DC50; for Dmax: HEK-293T, read-out: IKZF1 HiBit Dmax (%)
Outline: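 Degradation was measured as loss of luminescence from the HiBiT-IKZF1 tag after 6 h compound treatment, with 0.1% final DMSO, in stable HEK293T Flp-in cells. Values were normalized to DMSO, giving the 50% degradation concentration and the maximal degradation range.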

CRBN/DDB1 = CRBN/DDB1 (Homo sapiens (Human), UniProt Q96SW2); assay: IC50 measurements for binding to CRBN/DDB1 (HTRF); conditions: His tagged CRBN+DDB, Cy5-labeled Thalidomide probe, one hour
Procedure: In vitro Assay: IC50 Measurements for binding to CRBN/DDB1 (Table E1)
The binding potency was determined using HTRF assay technology (Perkin Elmer). Compounds were serially diluted in DMSO and 0.2 μL volume was transferred to white 384-well plate. The reaction was conducted in total volume of 20 μL with addition of 2 nM His tagged CRBN+DDB−DLS7+CXU4 (Wuxi, catalogue #RP210521GA) to compounds followed by addition of 60 nM Fluorescent probe Cy5-labeled Thalidomide (Tenova Pharma, catalogue #T52461), and 0.4 nM of MAb Anti-6HIS Tb cryptate Gold (Cisbio, catalogue #61HI2TLA in the assay buffer (50 mM HEPES pH 7.5, 1 mM TCEP, 0.01% Brij-35, 50 mM NaCl, and 0.1% BSA). After one hour incubation at room temperature, the HTRF signals were read on Envision reader (Perkin Elemer). Data was analyzed using XLfit using four parameters dose response curve to determine IC50s. A: IC50<0.1 μM; B: 0.1 μM<IC50<[…]; C: 0.5 μM<IC50<1 μM; D: 1 μM<IC50<5 μM; E: 5 μM<IC50<10 μM

Sequence of IKZF1 (Q13422 whole entry): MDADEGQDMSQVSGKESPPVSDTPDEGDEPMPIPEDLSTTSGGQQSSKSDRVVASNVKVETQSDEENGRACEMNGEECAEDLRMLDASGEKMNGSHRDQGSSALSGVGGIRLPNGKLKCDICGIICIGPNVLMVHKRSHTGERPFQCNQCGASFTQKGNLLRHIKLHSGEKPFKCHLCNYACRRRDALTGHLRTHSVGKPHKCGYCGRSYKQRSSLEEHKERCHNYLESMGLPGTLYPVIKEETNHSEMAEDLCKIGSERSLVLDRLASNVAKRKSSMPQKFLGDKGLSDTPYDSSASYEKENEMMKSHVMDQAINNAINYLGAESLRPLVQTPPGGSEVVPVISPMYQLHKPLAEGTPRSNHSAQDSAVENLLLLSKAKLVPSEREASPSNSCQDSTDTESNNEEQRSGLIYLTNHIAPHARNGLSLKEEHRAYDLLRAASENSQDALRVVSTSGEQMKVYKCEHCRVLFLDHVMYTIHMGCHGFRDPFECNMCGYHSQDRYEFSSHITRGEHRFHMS
Sequence of IKZF1 (Q96SW2 whole entry): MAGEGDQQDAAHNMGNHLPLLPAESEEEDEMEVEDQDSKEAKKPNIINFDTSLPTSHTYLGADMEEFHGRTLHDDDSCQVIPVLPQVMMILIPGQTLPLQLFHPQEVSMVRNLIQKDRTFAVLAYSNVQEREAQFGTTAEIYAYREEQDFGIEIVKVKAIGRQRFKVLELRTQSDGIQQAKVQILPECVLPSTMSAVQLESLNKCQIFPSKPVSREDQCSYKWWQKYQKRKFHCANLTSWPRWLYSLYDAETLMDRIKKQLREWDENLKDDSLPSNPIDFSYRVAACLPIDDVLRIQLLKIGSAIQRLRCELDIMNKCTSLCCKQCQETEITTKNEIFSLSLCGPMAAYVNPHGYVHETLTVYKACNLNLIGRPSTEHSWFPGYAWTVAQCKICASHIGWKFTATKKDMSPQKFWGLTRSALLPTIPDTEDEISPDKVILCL
Sequence of IKZF1 (Q16531 2-1140 partner): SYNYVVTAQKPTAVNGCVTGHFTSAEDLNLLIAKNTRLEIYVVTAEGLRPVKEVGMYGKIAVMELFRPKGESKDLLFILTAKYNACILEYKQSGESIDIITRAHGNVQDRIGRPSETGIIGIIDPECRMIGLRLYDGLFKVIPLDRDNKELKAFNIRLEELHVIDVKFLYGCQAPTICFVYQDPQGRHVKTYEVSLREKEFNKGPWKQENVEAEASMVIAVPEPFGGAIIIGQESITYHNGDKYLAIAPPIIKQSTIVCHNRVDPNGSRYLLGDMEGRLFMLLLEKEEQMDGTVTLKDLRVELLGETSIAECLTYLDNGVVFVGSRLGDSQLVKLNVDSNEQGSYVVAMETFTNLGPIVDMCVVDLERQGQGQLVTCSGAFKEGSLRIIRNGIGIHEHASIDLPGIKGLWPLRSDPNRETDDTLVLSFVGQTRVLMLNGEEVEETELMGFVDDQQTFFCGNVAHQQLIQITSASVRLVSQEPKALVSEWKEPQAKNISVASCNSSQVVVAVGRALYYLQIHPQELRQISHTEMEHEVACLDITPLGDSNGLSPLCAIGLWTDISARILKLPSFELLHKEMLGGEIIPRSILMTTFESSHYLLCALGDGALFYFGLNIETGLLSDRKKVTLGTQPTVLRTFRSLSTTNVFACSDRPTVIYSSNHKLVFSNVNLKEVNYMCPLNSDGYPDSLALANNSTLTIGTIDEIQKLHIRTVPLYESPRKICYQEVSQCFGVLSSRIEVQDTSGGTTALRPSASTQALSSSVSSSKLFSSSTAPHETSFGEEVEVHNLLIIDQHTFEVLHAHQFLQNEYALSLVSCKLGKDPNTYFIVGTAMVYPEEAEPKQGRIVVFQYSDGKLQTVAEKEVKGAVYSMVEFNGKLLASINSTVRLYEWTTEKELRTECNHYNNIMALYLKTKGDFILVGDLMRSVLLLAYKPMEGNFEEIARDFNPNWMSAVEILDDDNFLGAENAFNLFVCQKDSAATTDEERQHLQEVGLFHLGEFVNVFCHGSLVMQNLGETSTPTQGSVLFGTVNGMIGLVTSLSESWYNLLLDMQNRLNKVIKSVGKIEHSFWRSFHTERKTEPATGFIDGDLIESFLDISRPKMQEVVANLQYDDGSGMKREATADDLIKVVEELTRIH
Sequence of CRBN/DDB1 (Q96SW2 whole entry, species assumed): as the sequence (Q96SW2 whole entry) above
Sequence of CRBN/DDB1 (Q16531 whole entry partner, species assumed): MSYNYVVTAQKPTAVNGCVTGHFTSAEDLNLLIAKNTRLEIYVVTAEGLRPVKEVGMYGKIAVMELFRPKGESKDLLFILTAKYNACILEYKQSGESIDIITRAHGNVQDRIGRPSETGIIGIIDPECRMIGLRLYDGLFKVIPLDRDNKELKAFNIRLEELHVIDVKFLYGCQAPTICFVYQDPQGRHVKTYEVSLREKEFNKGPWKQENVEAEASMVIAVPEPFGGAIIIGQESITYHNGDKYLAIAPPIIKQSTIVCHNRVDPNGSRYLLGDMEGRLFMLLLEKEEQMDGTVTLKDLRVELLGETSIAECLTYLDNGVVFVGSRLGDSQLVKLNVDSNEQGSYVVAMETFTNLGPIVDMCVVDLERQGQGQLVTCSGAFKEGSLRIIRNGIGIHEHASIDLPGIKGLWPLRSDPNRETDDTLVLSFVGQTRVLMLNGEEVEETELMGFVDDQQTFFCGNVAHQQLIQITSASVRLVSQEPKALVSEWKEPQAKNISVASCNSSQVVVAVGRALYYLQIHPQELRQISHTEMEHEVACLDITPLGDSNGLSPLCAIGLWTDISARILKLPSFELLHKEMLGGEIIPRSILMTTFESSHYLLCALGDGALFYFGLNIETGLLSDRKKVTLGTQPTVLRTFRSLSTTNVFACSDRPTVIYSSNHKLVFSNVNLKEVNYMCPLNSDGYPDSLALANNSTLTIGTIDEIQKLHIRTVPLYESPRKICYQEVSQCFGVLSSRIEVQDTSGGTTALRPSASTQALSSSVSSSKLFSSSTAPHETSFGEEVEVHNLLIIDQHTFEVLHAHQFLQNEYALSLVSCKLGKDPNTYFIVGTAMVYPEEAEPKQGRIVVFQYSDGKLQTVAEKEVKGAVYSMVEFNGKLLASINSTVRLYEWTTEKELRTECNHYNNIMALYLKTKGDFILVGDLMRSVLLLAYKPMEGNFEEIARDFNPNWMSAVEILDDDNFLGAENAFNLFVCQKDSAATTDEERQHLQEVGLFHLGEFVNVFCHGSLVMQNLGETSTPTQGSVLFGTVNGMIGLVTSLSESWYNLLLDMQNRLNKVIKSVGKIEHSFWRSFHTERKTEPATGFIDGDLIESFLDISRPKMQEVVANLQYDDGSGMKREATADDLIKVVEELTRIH
Sequence of IKZF2 (Q9UKS7 whole entry): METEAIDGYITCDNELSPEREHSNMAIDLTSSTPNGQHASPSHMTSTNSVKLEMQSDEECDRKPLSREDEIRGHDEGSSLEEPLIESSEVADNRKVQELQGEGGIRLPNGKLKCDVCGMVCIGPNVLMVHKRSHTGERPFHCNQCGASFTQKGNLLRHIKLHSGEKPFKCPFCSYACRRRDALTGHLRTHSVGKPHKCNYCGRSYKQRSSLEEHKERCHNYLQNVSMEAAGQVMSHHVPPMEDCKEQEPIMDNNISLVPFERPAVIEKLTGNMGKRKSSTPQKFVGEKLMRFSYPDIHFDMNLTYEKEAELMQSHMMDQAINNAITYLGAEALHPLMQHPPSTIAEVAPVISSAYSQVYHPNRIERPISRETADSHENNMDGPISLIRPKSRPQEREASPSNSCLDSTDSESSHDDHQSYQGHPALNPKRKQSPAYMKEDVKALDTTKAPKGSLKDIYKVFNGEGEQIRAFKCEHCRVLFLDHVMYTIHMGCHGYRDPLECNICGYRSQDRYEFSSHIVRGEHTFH
Sequence of IKZF2 (Q96SW2 whole entry): as the sequence (Q96SW2 whole entry) above
Sequence of IKZF2 (Q16531 2-1140 partner): as the sequence (Q16531 2-1140 partner) above

| SMILES | DC50 (IKZF2) [nM] | Dmax (IKZF2) [%] | DC50 (IKZF1) [nM] | Dmax (IKZF1) [%] | IC50 (CRBN/DDB1) [nM] |
| --- | --- | --- | --- | --- | --- |
| Nc1n[nH]c2c(CN3CC(F)C3)cc(-c3ccc4c(c3)CN(C3CCC(=O)NC3=O)C4=O)nc12 (stereo not drawn) [Example 207, 3-(5-(3-amino-7-((3-fluoroazetidin-1-yl)methyl)-1H-pyrazolo[4,3-b]pyridin-5-yl)-1-oxoisoindolin-2-yl) piperidine-2,6-dione] | 10 to 100 | 60 to 80 | > 10000 | < 20 | 100 to 500 |
| CC(c1cc(-c2ccc3c(c2)CN(C2CCC(=O)NC2=O)C3=O)nc2c1ccn2C)N1CCCC1 (stereo not drawn) [Example 87, 3-(5-(1-methyl-4-(1-(pyrrolidin-1-yl)ethyl)-1H-pyrrolo[2,3-b]pyridin-6-yl)-1-oxoisoindolin-2-yl) piperidine-2,6-dione] | 100 to 1000 | < 20 | > 10000 | < 20 | 100 to 500 |
| O=C1CCC(N2Cc3cc(-c4cc(CN5CCC(CO)C5)c5ccn(C6CC6)c5n4)ccc3C2=O)C(=O)N1 (stereo not drawn) [Example 155, 3-(5-(1-cyclopropyl-4-((3-(hydroxymethyl)pyrrolidin-1-yl)methyl)-1H-pyrrolo[2,3-b]pyridin-6-yl)-1-oxoisoindolin-2-yl) piperidine-2,6-dione] | 1 to 10 | > 80 | 10 to 100 | 20 to 40 | 100 to 500 |
| Cn1ccc2c(CN3CCN4CCCC4C3)cc(-c3ccc4c(c3)CN(C3CCC(=O)NC3=O)C4=O)nc21 (stereo not drawn) [Example 95, 3-(5-(4-((hexahydropyrrolo[1,2-a]pyrazin-2 (1H)-yl)methyl)-1-methyl-1H-pyrrolo[2,3-b]pyridin-6-yl)-1-oxoisoindolin-2-yl) piperidine-2,6-dione] | 1 to 10 | 60 to 80 | > 10000 | < 20 | 100 to 500 |
| Cn1ccc2c(CN3CCC(F)(F)CC3)cc(-c3ccc4c(c3)CN(C3CCC(=O)NC3=O)C4=O)nc21 (stereo not drawn) [Example 60, 3-(5-(4-((4,4-difluoropiperidin-1-yl)methyl)-1-methyl-1H-pyrrolo[2,3-b]pyridin-6-yl)-1-oxoisoindolin-2-yl) piperidine-2,6-dione] | 1 to 10 | 60 to 80 | > 10000 | < 20 | 500 to 1000 |
| Nc1n[nH]c2c(CN3CC(O)C3)cc(-c3ccc4c(c3)CN(C3CCC(=O)NC3=O)C4=O)nc12 (stereo not drawn) [Example 213, 3-(5-(3-amino-7-((3-hydroxyazetidin-1-yl)methyl)-1H-pyrazolo[4,3-b]pyridin-5-yl)-1-oxoisoindolin-2-yl) piperidine-2,6-dione] | 100 to 1000 | 40 to 60 | 1 to 10 | 20 to 40 | 100 to 500 |
| Cn1ccc2c(CN3CC4CCCC4C3)cc(-c3ccc4c(c3)CN(C3CCC(=O)NC3=O)C4=O)nc21 (stereo not drawn) [Example 72, 3-(5-(4-((hexahydrocyclopenta[c]pyrrol-2 (1H)-yl)methyl)-1-methyl-1H-pyrrolo[2,3-b]pyridin-6-yl)-1-oxoisoindolin-2-yl) piperidine-2,6-dione] | < 1 | > 80 | > 10000 | 40 to 60 | 100 to 500 |
| O=C1CCC(N2Cc3cc(-c4cc(CN5CCCC5)c5c(n4)CCCC5)ccc3C2=O)C(=O)N1 (stereo not drawn) [Example 79, 3-(1-oxo-5-(4-(pyrrolidin-1-ylmethyl)-5,6,7,8-tetrahydroquinolin-2-yl)isoindolin-2-yl) piperidine-2,6-dione] | < 1 | > 80 | > 10000 | 20 to 40 | 100 to 500 |
| Cn1ccc2c(CN3CCCC3(C)C)cc(-c3ccc4c(c3)CN(C3CCC(=O)NC3=O)C4=O)nc21 (stereo not drawn) [Example 113, 3-(5-(4-((2,2-dimethylpyrrolidin-1-yl)methyl)-1-methyl-1H-pyrrolo[2,3-b]pyridin-6-yl)-1-oxoisoindolin-2-yl) piperidine-2,6-dione] | < 1 | 60 to 80 | 10 to 100 | 20 to 40 | 1000 to 5000 |
